Results as given in US20220168293A1, “TIME TO RESOLUTION OF AXITINIB-RELATED ADVERSE EVENTS” (PFIZER INC., priority 2020, published 2022).
Read-outs that look alike come from different tables or passages of the source.

Tests used:
[1] = Time to resolution (TTR) of AEs after treatment interruption or discontinuation, pooled cohorts; type: in vivo, human
Description: Five of the most common AEs associated with axitinib treatment were assessed: diarrhea; fatigue; hypertension; nausea; and palmar-plantar erythrodysesthesia syndrome (PPE). Incidences of treatment-emergent AEs were taken from the full published articles for each study. AEs were classified and graded per the Common Terminology Criteria for Adverse Events version 3.0 or the National Cancer Institute Common Terminology Criteria for Adverse Events version 4.03, as used in each individual study. Incidences of AEs were reported for any grade and for grade ≥3.

[2] = cited from earlier work
[3] = Action taken for each occurrence of each AE by pooled treatment cohort; details: occurrences of the AE
Description: To determine the TTR for each of the AEs, data were pooled for different treatment cohorts as follows: patients who received axitinib monotherapy (axitinib monotherapy cohort); patients who received axitinib in combination with IO therapy (axitinib+10 cohort); and patients in comparator treatment arms who received another TKI as monotherapy, i.e., sorafenib or sunitinib (other TKI cohort). TTR was calculated for all causality, treatment-emergent AEs. For each AE reported for patients in each pooled cohort, the action taken on presentation of the AE was documented. […] TTR was determined for AEs of any grade and for grade Data were descriptive only; no statistical comparisons were made.
Action taken was determined as ‘not applicable’ when the associated drug was already permanently discontinued when the AE occurred.

[4] = AEs of any grade, after treatment interruption or discontinuation
[5] = AEs of grade 3 or higher (FIG. 2)
[6] = drug already permanently discontinued

CNC(=O)c1ccccc1Sc1ccc2c(/C=C/c3ccccn3)n[nH]c2c1 [Axitinib, axitinib]
median (IQR) TTR, PPE [1, 4]: 3 (3-5) days
median (IQR) TTR, diarrhea [1, 4]: 3 (1-6) days
median (IQR) TTR, hypertension [1, 4]: 1 (1-3) days
median (IQR) TTR, nausea [1, 4]: 3 (1-7) days
median (IQR) TTR, fatigue ([1]; AEs of any grade, after treatment interruption or discontinuation, listed as INLYTA monotherapy): 8 days
median (IQR) TTR, fatigue ([1]; AEs of any grade, after treatment interruption or discontinuation, listed as axitinib monotherapy): 8 (4-16) days
median (IQR) TTR, PPE [1, 5]: 3 (1-6) days
median (IQR) TTR, diarrhea [1, 5]: 3 (2-6) days
median (IQR) TTR, hypertension [1, 5]: 2 (1-8) days
median (IQR) TTR, nausea [1, 5]: 4 (2-15) days
median (IQR) TTR, fatigue ([1]; AEs of grade 3 or higher (FIG. 2), listed as INLYTA monotherapy): 8 days
median (IQR) TTR, fatigue ([1]; AEs of grade 3 or higher (FIG. 2), listed as axitinib monotherapy): 8 (5-16) days
Median TTR for adverse reactions, except for fatigue (range of medians) ([1]; all grade): 1 to 3 days
Median TTR for adverse reactions, except for fatigue (range of medians) ([1]; grade 3 or higher): 2 to 4 days
half-life ([2]; after a single 5 mg dose): 2.5 to 6.1 h
Diarrhea, action taken: Stopped temporarily and reduced [3]: 0 n
Diarrhea, action taken: Unknown [3]: 0 n
Fatigue, action taken: Stopped temporarily and reduced [3]: 0 n
Fatigue, action taken: Unknown [3]: 0 n
Hypertension, action taken: Stopped temporarily and reduced [3]: 0 n
Hypertension, action taken: Unknown [3]: 0 n
Nausea, action taken: Permanently discontinued [3]: 0 n
Nausea, action taken: Stopped temporarily and reduced [3]: 0 n
Nausea, action taken: Unknown [3]: 0 n
PPE, action taken: Stopped temporarily and reduced [3]: 0 n
PPE, action taken: Unknown [3]: 0 n
Diarrhea, action taken: Not applicable [3, 6]: 0 n
Fatigue, action taken: Not applicable [3, 6]: 0 n
Hypertension, action taken: Not applicable [3, 6]: 0 n
Nausea, action taken: Not applicable [3, 6]: 0 n
PPE, action taken: Not applicable [3, 6]: 0 n

CNC(=O)c1cc(Oc2ccc(NC(=O)Nc3ccc(Cl)c(C(F)(F)F)c3)cc2)ccn1 [Sorafenib, sorafenib]
half-life ([2]; in vivo): 25 to 48 h

CCN(CC)CCNC(=O)c1c(C)[nH]c(/C=C2\C(=O)Nc3ccc(F)cc32)c1C [Sunitinib, sunitinib]
half-life ([2]; in vivo): 40 to 60 h

COc1cc2nccc(Oc3ccc(NC(=O)C4(C(=O)Nc5ccc(F)cc5)CC4)cc3)c2cc1OC [cabozantinib]
half-life ([2]; in vivo): ~99 h

COc1cc2nccc(Oc3ccc(NC(=O)NC4CC4)c(Cl)c3)c2cc1C(N)=O [lenvatinib]
half-life ([2]; in vivo): ~28 h
